Experimental data reported in the supplement of paper PMC10307832.

Key:
Assay in all cases: relative viability (nuclei count vs DMSO), 5 days (fraction); higher = more cells survive
Alisertib + Bortezomib = compound: COc1cc(Nc2ncc3c(n2)-c2ccc(Cl)cc2C(c2c(F)cccc2OC)=NC3)ccc1C(=O)O [Alisertib] + CC(C)C[C@H](NC(=O)[C@H](Cc1ccccc1)NC(=O)c1cnccn1)B(O)O [Bortezomib] (partner 0.002 µM)
Method in brief: (§1)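 Relative viability was taken as the ratio of nuclei in treated wells to nuclei in vehicle wells. Lung cancer cell lines in 1536-well plates received compounds by pin tool one day after seeding, either one drug alone or a fixed anchor-drug dose plus five library-drug doses (not always all listed) in √10 steps. Nuclei were counted on 4× images after 5 days of treatment, and values are medians of duplicate plates.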

Alisertib + Pictilisib = compound: COc1cc(Nc2ncc3c(n2)-c2ccc(Cl)cc2C(c2c(F)cccc2OC)=NC3)ccc1C(=O)O [Alisertib] + CS(=O)(=O)N1CCN(Cc2cc3nc(-c4cccc5[nH]ncc45)nc(N4CCOCC4)c3s2)CC1 [Pictilisib] (partner 1 µM)
Method in brief: as §1

Alisertib + Foretinib = compound: COc1cc(Nc2ncc3c(n2)-c2ccc(Cl)cc2C(c2c(F)cccc2OC)=NC3)ccc1C(=O)O [Alisertib] + COc1cc2c(Oc3ccc(NC(=O)C4(C(=O)Nc5ccc(F)cc5)CC4)cc3F)ccnc2cc1OCCCN1CCOCC1 [Foretinib] (partner 0.25 µM)
Method in brief: as §1

Alisertib + Palbociclib = compound: COc1cc(Nc2ncc3c(n2)-c2ccc(Cl)cc2C(c2c(F)cccc2OC)=NC3)ccc1C(=O)O [Alisertib] + CC(=O)c1c(C)c2cnc(Nc3ccc(N4CCNCC4)cn3)nc2n(C2CCCC2)c1=O [Palbociclib] (partner 0.5 µM)
Method in brief: as §1

| Cell Line | relative viability (Alisertib + Bortezomib; first compound 0.005 µM) | relative viability (Alisertib + Bortezomib; first compound 0.01581 µM) | relative viability (Alisertib + Bortezomib; first compound 0.05 µM) | relative viability (Alisertib + Bortezomib; first compound 0.1581 µM) | relative viability (Alisertib + Bortezomib; first compound 0.5 µM) | relative viability (Alisertib + Pictilisib; first compound 0.005 µM) | relative viability (Alisertib + Pictilisib; first compound 0.01581 µM) | relative viability (Alisertib + Pictilisib; first compound 0.05 µM) | relative viability (Alisertib + Pictilisib; first compound 0.1581 µM) | relative viability (Alisertib + Pictilisib; first compound 0.5 µM) | relative viability (Alisertib + Foretinib; first compound 0.005 µM) | relative viability (Alisertib + Foretinib; first compound 0.01581 µM) | relative viability (Alisertib + Foretinib; first compound 0.05 µM) | relative viability (Alisertib + Foretinib; first compound 0.1581 µM) | relative viability (Alisertib + Foretinib; first compound 0.5 µM) | relative viability (Alisertib + Palbociclib; first compound 0.005 µM) | relative viability (Alisertib + Palbociclib; first compound 0.01581 µM) | relative viability (Alisertib + Palbociclib; first compound 0.05 µM) | relative viability (Alisertib + Palbociclib; first compound 0.1581 µM) | relative viability (Alisertib + Palbociclib; first compound 0.5 µM) |
| --- | --- | --- | --- | --- | --- | --- | --- | --- | --- | --- | --- | --- | --- | --- | --- | --- | --- | --- | --- | --- |
| LCLC-103H | 1.19 | 1.01 | 1.09 | 0.262 | 0.3 | 0.588 | 0.687 | 0.573 | 0.211 | 0.206 | 0.759 | 0.544 | 0.283 | 0.272 | 0.236 | 0.44 | 0.485 | 0.385 | 0.335 | 0.4 |
| LOU-NH91 | 0.509 | 0.427 | 0.388 | 0.364 | 0.405 | 0.508 | 0.487 | 0.448 | 0.366 | 0.392 | 0.921 | 0.922 | 0.655 | 0.444 | 0.366 | 0.505 | 0.529 | 0.511 | 0.501 | 0.397 |
| LU99A | 1.15 | 0.872 | 0.396 | 0.24 | 0.182 | 0.404 | 0.341 | 0.252 | 0.159 | 0.151 | 0.741 | 0.762 | 0.361 | 0.27 | 0.205 | 0.386 | 0.418 | 0.189 | 0.185 | 0.174 |
| LXF-289 | 0.823 | 0.608 | 0.323 | 0.108 | 0.128 | 0.701 | 0.565 | 0.576 | 0.103 | 0.0904 | 0.858 | 0.675 | 0.218 | 0.187 | 0.157 | 0.571 | 0.527 | 0.267 | 0.204 | 0.181 |
| NCI-H23 | 0.875 | 0.39 | 0.272 | 0.158 | 0.164 | 0.422 | 0.302 | 0.18 | 0.185 | 0.147 | 0.759 | 0.452 | 0.269 | 0.235 | 0.211 | 0.476 | 0.442 | 0.319 | 0.205 | 0.203 |
| NCI-H322M | 1.15 | 1.11 | 1.25 | 0.471 | 0.46 | 0.497 | 0.477 | 0.451 | 0.321 | 0.311 | 0.896 | 0.925 | 0.649 | 0.402 | 0.397 | 0.473 | 0.475 | 0.477 | 0.413 | 0.417 |
| NCI-H441 | 0.715 | 0.394 | 0.184 | 0.17 | 0.155 | 0.402 | 0.229 | 0.118 | 0.139 | 0.123 | 0.845 | 0.546 | 0.308 | 0.262 | 0.232 | 0.182 | 0.225 | 0.117 | 0.125 | 0.123 |
| NCI-H460 | 1.07 | 0.9 | 0.428 | 0.0287 | 0.0157 | 0.364 | 0.428 | 0.327 | 0.0613 | 0.0689 | 0.98 | 0.956 | 0.283 | 0.0899 | 0.0482 | 0.143 | 0.13 | 0.123 | 0.0185 | 0.0401 |
| NCI-H520 | 0.463 | 0.377 | 0.199 | 0.173 | 0.186 | 0.23 | 0.203 | 0.209 | 0.179 | 0.187 | 1.15 | 0.644 | 0.486 | 0.266 | 0.322 | 0.196 | 0.232 | 0.214 | 0.177 | 0.155 |
| NCI-H647 | 0.598 | 0.572 | 0.305 | 0.133 | 0.086 | 0.42 | 0.449 | 0.274 | 0.137 | 0.0788 | 1.08 | 1.04 | 0.691 | 0.301 | 0.131 | 0.282 | 0.332 | 0.161 | 0.0956 | 0.0773 |
| NCI-H650 | 0.568 | 0.619 | 0.25 | 0.265 | 0.22 | 0.732 | 0.825 | 0.29 | 0.267 | 0.174 | 0.926 | 0.902 | 0.407 | 0.226 | 0.222 | 0.326 | 0.327 | 0.191 | 0.159 | 0.163 |
| NCI-H661 | 0.845 | 0.557 | 0.521 | 0.304 | 0.297 | 0.378 | 0.379 | 0.229 | 0.245 | 0.242 | 0.995 | 1.04 | 0.813 | 0.423 | 0.369 | 0.414 | 0.401 | 0.367 | 0.296 | 0.294 |
| NCI-H727 | 0.796 | 0.795 | 0.46 | 0.329 | 0.301 | 0.273 | 0.333 | 0.236 | 0.236 | 0.225 | 0.658 | 0.922 | 0.488 | 0.352 | 0.417 | 0.565 | 0.647 | 0.534 | 0.483 | 0.474 |
| NCI-H838 | 0.774 | 0.655 | 0.422 | 0.25 | 0.158 | 0.377 | 0.379 | 0.274 | 0.189 | 0.113 | 1.03 | 0.971 | 0.605 | 0.394 | 0.202 | 0.189 | 0.291 | 0.177 | 0.154 | 0.132 |
| NCI-H1355 | 1.18 | 1.22 | 0.993 | 0.368 | 0.206 | 0.37 | 0.374 | 0.28 | 0.181 | 0.164 | 0.88 | 0.892 | 0.343 | 0.244 | 0.202 | 0.362 | 0.393 | 0.37 | 0.291 | 0.142 |
| NCI-H1437 | 0.489 | 0.457 | 0.191 | 0.191 | 0.114 | 0.341 | 0.378 | 0.219 | 0.123 | 0.0875 | 1.08 | 0.939 | 0.796 | 0.454 | 0.236 | 0.241 | 0.289 | 0.217 | 0.172 | 0.144 |
